These results are taken from patent US20100249071A1, “Modulators of S1P and Methods of Making And Using” (Exelixis, Inc., priority 2009, published 2010).

One assay has as its target T1, S1P3 (Homo sapiens, UniProt Q99500).
T1 construct: host or cells: HEK293 (transient transfection)
As to the kind of experiment: S1P3 Tango β-arrestin recruitment assay in HEK293 cells (Assay 5). It counts as cell-based. As to conditions: read-out: Assay 5 EC50. In short, it runs like this:
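HEK293 cells transiently expressing S1P3 fused via TEV-cleavable linker to tTA, with β-arrestin2–TEV, treated 16-18 h at 37 °C with compounds (top 10 μM, 10-point 3-fold, 1% DMSO). Luciferase reporter luminescence normalised to DMSO background and 5 μM S1P control as percent activity; EC50 from concentration-response curves.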

Assay [1] concerns the target T2, hS1PR5 (hEdg8) membrane protein (Homo sapiens, UniProt Q9H228).
T2 construct: expressed in transfected cells; host or cells: CHO
As to the kind of experiment: hS1P5R GTPγS binding assay (Assay 4). The class given is biochemical. An outline of the steps:
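Membranes (5 μg) from CHO cells expressing hS1PR5, incubated 1 h at room temperature with 30 μM GDP, 0.1 nM [35S]GTPγS, 0.25% fatty acid free BSA and serially diluted compound in pH 7.9 Tris buffer with MgCl2. WGA SPA beads added for another 1 h, then bound [35S]GTPγS counted by scintillation.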
A general note: Binding of GTPγS marks nucleotide exchange on a G protein.

For assay [2], the target named is T3, hS1P1R (hEdg1) membrane protein (Homo sapiens, UniProt P21453).
T3 construct: purchased Lonza
T3 sequence (P21453 whole entry): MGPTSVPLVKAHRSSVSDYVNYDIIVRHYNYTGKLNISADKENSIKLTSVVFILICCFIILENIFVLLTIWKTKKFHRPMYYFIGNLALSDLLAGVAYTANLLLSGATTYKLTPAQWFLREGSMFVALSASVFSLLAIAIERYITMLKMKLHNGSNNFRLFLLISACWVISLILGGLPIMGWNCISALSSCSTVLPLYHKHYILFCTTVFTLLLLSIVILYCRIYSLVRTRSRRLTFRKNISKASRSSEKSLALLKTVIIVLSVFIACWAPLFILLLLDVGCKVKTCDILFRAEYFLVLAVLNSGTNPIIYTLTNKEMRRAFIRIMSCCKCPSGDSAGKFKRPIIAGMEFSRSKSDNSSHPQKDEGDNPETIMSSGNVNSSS
As to the kind of experiment: hS1P1R GTPγS binding assay (Assay 3a). The class given is biochemical. In short, it runs like this:
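Membranes (4 μg) expressing hS1P1R incubated 1 h at room temperature with 30 μM GDP, 0.1 nM [^35S]GTPγS, 0.25% fatty acid free BSA and serially diluted agonist in Tris-HCl pH 7.9/NaCl/MgCl2/EGTA buffer. Bound [^35S]GTPγS captured on WGA SPA beads (further 1 h) and counted.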

Another assay concerns the target T4, S1P1 (Homo sapiens, UniProt P21453).
T4 construct: host or cells: U2OS
As to the kind of experiment: Tango β-arrestin recruitment assay in U2OS cells (Assay 2b). It counts as cell-based. As to conditions: read-out: Assay 2b EC50. In short, it runs like this:
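In this agonist-mode Tango assay, U2OS cells carrying S1P1 and the reporter were serum-starved 48 h, then exposed overnight at 37 °C to compound (10 points, 3-fold, top 1 μM, 1% DMSO). β-Lactamase F460/F530 ratio was normalized to 1 μM S1P, and EC50 was fitted.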
For orientation: Activated receptors often draw arrestin, which recruitment assays turn into a signal.

In the next assay the test system is circulating lymphocytes. As to the kind of experiment: Lymphocyte PD assay in rats. The class given is in vivo, rat. As to conditions: 24 hours after oral single dose at 3 mg/kg, Female CD rats (Sprague Dawley), compared to vehicle-only group. On the procedure: Suppression of circulating lymphocytes was assessed as a PD endpoint in jugular vein canulated Sprague Dawely (SD) rats 6-8 weeks of age and weighing approximately 200 g (Taconic Farms, Germantown, N.Y.). Prior initiating a study, rats were acclimated to the vivarium facility (12 h light cycle, 12 h dark cycle) for a minimum of 2 days. During a study, animals were provided food and water ad libitum and housed in a room conditioned at 70-75° F. and 60% relative humidity. All animals were examined daily for health assessment.
The Compound of the Invention were formulated and animals was dosed at a volume of 4 mL/kg. At indicated timepoints, whole blood was collected via jugular vein canulas into EDTA-coated tubes and hematology analysis was performed on an Abbott Cell-Dyn 3700 hematology analyzer. Readouts included white blood cells (total, differential, and % of total), neutrophils, lymphocytes, monocytes, eosinophils, basophils, RBC, HGB, hematocrit, mean corpuscule volume, mean corpuscule HGB concentration, RBC distribution width, platelets, and mean platelet volume.

T2 sequence (Q9H228 whole entry): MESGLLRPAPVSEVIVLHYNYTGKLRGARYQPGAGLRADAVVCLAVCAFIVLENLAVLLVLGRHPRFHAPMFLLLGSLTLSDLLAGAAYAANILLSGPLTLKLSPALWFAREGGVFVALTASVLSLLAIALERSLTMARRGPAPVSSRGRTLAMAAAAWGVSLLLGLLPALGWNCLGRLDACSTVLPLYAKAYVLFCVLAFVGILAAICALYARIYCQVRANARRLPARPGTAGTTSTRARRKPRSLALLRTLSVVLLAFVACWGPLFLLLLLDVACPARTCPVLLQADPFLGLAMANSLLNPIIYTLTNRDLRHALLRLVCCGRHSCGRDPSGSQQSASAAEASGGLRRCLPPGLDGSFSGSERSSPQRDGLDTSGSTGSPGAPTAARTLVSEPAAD
T4 sequence (P32121 whole entry): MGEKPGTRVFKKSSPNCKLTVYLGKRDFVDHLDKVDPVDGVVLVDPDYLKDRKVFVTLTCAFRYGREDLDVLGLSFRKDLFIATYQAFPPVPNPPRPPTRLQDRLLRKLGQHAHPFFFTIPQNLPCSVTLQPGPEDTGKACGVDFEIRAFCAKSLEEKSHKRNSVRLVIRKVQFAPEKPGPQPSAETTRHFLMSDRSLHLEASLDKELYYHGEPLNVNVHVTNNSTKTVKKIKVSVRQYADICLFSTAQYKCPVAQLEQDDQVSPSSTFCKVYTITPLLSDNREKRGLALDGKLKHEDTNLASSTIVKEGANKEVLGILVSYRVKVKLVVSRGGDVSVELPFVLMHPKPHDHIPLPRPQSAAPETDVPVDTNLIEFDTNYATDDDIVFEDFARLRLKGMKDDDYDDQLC
T4 sequence (P21453 whole entry): as the sequence (P21453 whole entry) above
T1 sequence (P32121 whole entry): as the sequence (P32121 whole entry) above
T1 sequence (Q99500 whole entry): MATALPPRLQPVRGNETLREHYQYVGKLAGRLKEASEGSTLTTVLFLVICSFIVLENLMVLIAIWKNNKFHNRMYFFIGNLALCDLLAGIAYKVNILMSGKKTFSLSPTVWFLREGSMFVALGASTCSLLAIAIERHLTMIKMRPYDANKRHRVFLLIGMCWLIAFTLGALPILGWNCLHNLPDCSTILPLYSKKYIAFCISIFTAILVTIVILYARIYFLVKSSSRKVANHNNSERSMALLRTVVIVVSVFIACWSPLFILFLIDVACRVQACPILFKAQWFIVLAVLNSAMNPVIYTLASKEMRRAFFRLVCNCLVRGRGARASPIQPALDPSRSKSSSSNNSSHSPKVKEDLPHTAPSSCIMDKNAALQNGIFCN

By EC50 is commonly meant the concentration at which the effect is half-maximal. On to `CC(C)Oc1ccc(-c2nnc(-c3cc(F)c(OC[C@H](N)[C@H](C)O)cc3Cl)s2)cc1Cl` [Entry 72, (2S,3S)-3-amino-4-{[5-chloro-4-(5-{3-chloro-4-[(1-methylethyl)oxy]phenyl}-1,3,4-thiadiazol-2-yl)-2-fluorophenyl]oxy}butan-2-ol], for which the EC50 was greater than 10000 nM at S1P3, 50 to 250 nM in assay [1], 10 to 50 nM in assay [2] and no more than 10 nM on S1P1. The “Lymphocyte Counts (p < 0.05)” value with circulating lymphocytes was −86%.
Taken in the same sequence, the figures for `CC(C)Oc1ccc(-c2nnc(-c3cc(F)c(OC[C@H](N)CO)cc3Cl)s2)cc1Cl` [Entry 1, (2R)-2-amino-3-{[5-chloro-4-(5-{3-chloro-4-[(1-methylethyl)oxy]phenyl}-1,3,4-thiadiazol-2-yl)-2-fluorophenyl]oxy}propan-1-ol] were greater than 10000 nM, 10 to 50 nM, 10 to 50 nM, 10 to 50 nM and −80%.
Taken in the same sequence, the figures for `CC(C)Oc1ccc(-c2nnc(-c3cc(F)c(OC[C@H](N)CO)cc3Cl)s2)cc1Br` [Entry 2, (2R)-2-amino-3-{[4-(5-{3-bromo-4-[(1-methylethyl)oxy]phenyl}-1,3,4-thiadiazol-2-yl)-5-chloro-2-fluorophenyl]oxy}propan-1-ol] were greater than 10000 nM, 10 to 50 nM, no more than 10 nM, 10 to 50 nM and −93%.
Taken in the same sequence, the figures for `Cc1cc(-c2nnc(-c3cc(F)c(OC[C@H](N)[C@@H](C)O)cc3Cl)s2)cc(NC(C)C)n1` [Entry 62, (2R,3S)-3-amino-4-{[5-chloro-2-fluoro-4-(5-{2-methyl-6-[(1-methylethyl)amino]pyridin-4-yl}-1,3,4-thiadiazol-2-yl)phenyl]oxy}butan-2-ol] were greater than 10000 nM, 10 to 50 nM, no more than 10 nM, no more than 10 nM and −79%.
As for `CC(C)Nc1ccc(-c2nnc(-c3cc(F)c(OCC(N)CO)cc3Cl)s2)cn1` (stereo not drawn) [Entry 44, 2-amino-3-{[5-chloro-2-fluoro-4-(5-{6-[(1-methylethyl)amino]pyridin-3-yl}-1,3,4-thiadiazol-2-yl)phenyl]oxy}propan-1-ol], the EC50 is greater than 10000 nM on S1P3, 250 to 2800 nM in assay [1], 250 to 2800 nM in assay [2] and no more than 10 nM on S1P1. For the same compound, the “Lymphocyte Counts (p < 0.05)” value in the assay with circulating lymphocytes is −94%.
As for `CC(C)Nc1ccc(-c2nnc(-c3cc(F)c(OC[C@@H](N)CO)cc3Cl)s2)cn1` [Entry 77, (2S)-2-amino-3-{[5-chloro-2-fluoro-4-(5-{6-[(1-methylethyl)amino]pyridin-3-yl}-1,3,4-thiadiazol-2-yl)phenyl]oxy}propan-1-ol], the EC50 was greater than 10000 nM on S1P3, 250 to 2800 nM in assay [1], 250 to 2800 nM in assay [2] and no more than 10 nM at S1P1. Further, in the assay on circulating lymphocytes, the “Lymphocyte Counts (p < 0.05)” value is reported as −94%.
